Experimental data from publication PMC4914680 (Antimicrobial Agents and Chemotherapy, 2016).
Read-outs that look alike come from different tables or passages of the source.

What was measured:
[1] = test system: MJ4, a subtype C molecular clone; experiment: RT activity in PBMCs; details: Human immunodeficiency virus 1, PBMC
[2] = test system: HIV-1 LAI; experiment: Multiple-cycle assay, laboratory strains; type: cell-based; details: Human immunodeficiency virus 1
[3] = test system: HIV-1 subtype A clinical isolates; experiment: Drug susceptibility assay using clinical isolates in PBMCs; details: Human immunodeficiency virus 1, PBMC
[4] = molecular target: T1, HIV-1 gp160 (Human immunodeficiency virus type 1 group M subtype B, UniProt P04578); experiment: HIV-1 cell fusion assay; type: cell-based
T1 construct: expressed in transfected cells; host or cells: NL-TOE donor cells (target cells: HeLa C14)

[5] = test system: subtype B gag/pr recombinant viruses; experiment: Multiple-cycle Gag/Pr phenotyping assay; type: cell-based, HIV-1
[6] = test system: HIV-1 subtype D clinical isolates; experiment: Drug susceptibility assay using clinical isolates in PBMCs; details: Human immunodeficiency virus 1, PBMC
[7] = molecular target: HIV-1 reverse transcriptase (Human immunodeficiency virus type 1 group M subtype B, UniProt P03366); experiment: In vitro HIV-1 reverse transcriptase assay; type: biochemical
[8] = test system: HIV-1 subtype G clinical isolates; experiment: Drug susceptibility assay using clinical isolates in PBMCs; details: Human immunodeficiency virus 1, PBMC
[9] = test system: HIV-1 subtype CRF01_AE clinical isolates; experiment: as above; details: Human immunodeficiency virus 1, PBMC
[10] = test system: HIV-2 ROD; experiment: Multiple-cycle assay, laboratory strains; type: cell-based; details: Human immunodeficiency virus 2, MT-2
[11] = test system: HIV-1 SF-2; experiment: Multiple-cycle assay, laboratory strains; type: cell-based; details: Human immunodeficiency virus 1; SF-2, CXCR4, MT-2
[12] = test system: HIV-2 CBL-20; experiment: Multiple-cycle assay, laboratory strains; type: cell-based; details: HIV-2 CBL-20, MT-2
[13] = molecular target: HIV-1 integrase (Human immunodeficiency virus type 1 group M subtype B, UniProt P03366); experiment: HIV-1 integrase inhibitor binding assay
[14] = test system: HIV-1 group N clinical isolate; experiment: Drug susceptibility assay using clinical isolates in PBMCs; details: Human immunodeficiency virus 1, PBMC
[15] = test system: HIV-1 IIIB; experiment: Multiple-cycle assay, laboratory strains; type: cell-based; details: Human immunodeficiency virus 1, CXCR4, MT-2
[16] = molecular target: WT HIV-1 VLPs, p25 to p24 (CA/SP1) cleavage (Human immunodeficiency virus type 1 group M subtype B, UniProt P03348); experiment: HIV-1 VLP protease cleavage assay; type: biochemical; details: Western blot
[17] = human, serum
[18] = test system: HIV-1 NL4-3; experiment: Multiple-cycle assay, laboratory strains; type: cell-based; details: Human immunodeficiency virus 1, NL43; NL4-3, CXCR4, MT-2
[19] = molecular target: HIV-1 Gag (WT LAI VLPs) (Human immunodeficiency virus type 1 group M subtype B, UniProt P03348); experiment: [3H]BMS-955176-Gag binding (SPA)
[20] = initial / phase 2a clinical studies; cited from earlier work
[21] = test system: subtype C gag/pr recombinant viruses; experiment: Multiple-cycle Gag/Pr phenotyping assay; type: cell-based, HIV-1
[22] = test system: HIV-1 NL4-3; experiment: Time-of-addition study, NL4-3-infected B6 cells; type: cell-based; details: single cycle, 24 h postinfection
[23] = test system: HIV-2 CBL-23; experiment: Multiple-cycle assay, laboratory strains; type: cell-based; details: HIV-2 CBL-23, MT-2
[24] = test system: HIV-1 subtype C clinical isolates; experiment: Drug susceptibility assay using clinical isolates in PBMCs
[25] = test system: HIV-1 subtype B clinical isolates; experiment: as above
[26] = Human immunodeficiency virus 2, read-out: EC50

Structure (SMILES): C=C(C)[C@@H]1CC[C@]2(NCCN3CCS(=O)(=O)CC3)CC[C@]3(C)[C@H](CC[C@@H]4[C@@]5(C)CC=C(c6ccc(C(=O)O)cc6)C(C)(C)[C@@H]5CC[C@]43C)[C@@H]12 [BMS-955176]
- EC50 [1]: 3 nM
- EC50 [2]: 2.6 ± 0.3 nM
- EC50 ([3]; PBMCs, one less sensitive subtype A isolate): 280 nM
- EC50 ([3]; read-out: Mean EC50 ± SD, PBMCs, A, 13 of 14 isolates): 26 ± 25 nM
- EC50 ([3]; read-out: Mean EC50 ± SD, PBMCs, A, 14 isolates): 44 ± 72 nM
- EC50 ([3]; read-out: Median EC50, PBMCs, A, 13 of 14 isolates): 20 nM
- EC50 ([3]; read-out: Median EC50, PBMCs, A, 14 isolates): 21 nM
- EC50 ([3]; read-out: Range EC50, PBMCs, A, 13 of 14 isolates): 5 to 87 nM
- EC50 ([3]; read-out: Range EC50, PBMCs, A, 14 isolates): 5 to 280 nM
- EC50 ([3]; read-out: median EC50 values, Fig 7, PBMCs, A (Group M)): 20000 nM
- EC50 [4]: > 2000 nM
- EC50 ([5]; Human immunodeficiency virus 1, read-out: EC50 (mean), full library, None (WT), n=51): 3 nM
- EC50 ([5]; Human immunodeficiency virus 1, read-out: EC50 (mean), full library, T371A/Q/N/S/TT, n=6): 4 nM
- EC50 ([5]; Human immunodeficiency virus 1, read-out: EC50 (mean), full library, V362I, n=5): 5.3 nM
- EC50 ([5]; Human immunodeficiency virus 1, read-out: EC50 (mean), full library, V370A + ΔT371, n=4): 12 nM
- EC50 ([5]; Human immunodeficiency virus 1, read-out: EC50 (mean), full library, V370A, n=7): 2 nM
- EC50 ([5]; Human immunodeficiency virus 1, read-out: EC50 (mean), full library, V370I/L/T, n=4): 3 nM
- EC50 ([5]; Human immunodeficiency virus 1, read-out: EC50 (mean), full library, V370 M, n=9): 7 nM
- EC50 ([5]; Human immunodeficiency virus 1, read-out: EC50 range, V362I-containing viruses, n=5): 2 to 9.4 nM
- EC50 ([5]; Human immunodeficiency virus 1, read-out: EC50 range, all subtype B, n=87): 0.7 to 22 nM
- EC50 ([5]; Human immunodeficiency virus 1, read-out: mean EC50, all subtype B, n=87): 3.9 ± 3.4 nM
- EC50 ([5]; Human immunodeficiency virus 1, read-out: median EC50, V362I-containing viruses, n=5): 5.7 nM
- EC50 ([5]; Human immunodeficiency virus 1, read-out: median EC50, WT subtype B (n=51)): 2.5 nM
- EC50 ([5]; Human immunodeficiency virus 1, read-out: median EC50, all subtype B, n=87): 2.8 nM
- EC50 ([5]; read-out: EC50 (mean), full library, V362I, n=5): 5 nM
- EC50 ([6]; read-out: Median EC50): 6 nM
- EC50 ([6]; read-out: Range EC50): 1 to 21 nM
- IC50 [7]: > 50 µM
- EC50 ([8]; read-out: Mean EC50 ± SD): 11 ± 4 nM
- EC50 ([8]; read-out: Median EC50): 10 nM
- EC50 ([8]; read-out: Range EC50): 8 to 15 nM
- EC50 ([9]; read-out: Mean EC50 ± SD, PBMCs, AE, 7 isolates): 77 ± 46 nM
- EC50 ([9]; read-out: Range EC50, PBMCs, AE, 7 isolates): 10 to 139 nM
- EC50 [10]: 15 ± 1.2 nM
- EC50 [11]: 11 ± 1.5 nM
- EC50 [12]: completely resistant
- EC50 [12, 26]: > 1200 nM
- IC50 [13]: > 15 µM
- EC50 ([14]; read-out: Mean EC50): 7.2 nM
- EC50 ([14]; read-out: Median EC50): 7 nM
- EC50 ([14]; read-out: Range EC50): 7 nM
- EC50 [15]: 2.8 ± 0.3 nM
- inhibition of conversion of VLP p25 to p24 [16]: inhibited the conversion of HIV-1 WT VLP p25 to p24 in a dose-dependent manner
- fraction unbound [17]: 0.18
- EC50 [18]: 4.7 ± 2.3 nM
- Ki [19]: 5.6 nM
- Kd ([19]; Kd values, range of 5 experiments): 2.3 to 6 nM
- Kd ([19]; Kd, saturation binding of [3H]BMS-955176 to LAI VLPs): 5.5 nM
- clinical safety and tolerability [20]: safe and well tolerated
- EC50 ([21]; Human immunodeficiency virus 1, read-out: EC50 range): 2.1 to 45 nM
- EC50 ([21]; Human immunodeficiency virus 1, read-out: mean EC50): 10.9 ± 9.1 nM
- EC50 ([21]; Human immunodeficiency virus 1, read-out: median EC50): 8.8 nM
- effect on luciferase signal by time of addition [22]: did not inhibit luciferase expression when added any time during infection
- EC50 [23]: completely resistant
- EC50 [23, 26]: > 1200 nM
- EC50 ([24]; Human immunodeficiency virus 1, PBMC, PBMCs, one insensitive subtype C isolate): 1400 nM
- EC50 ([24]; Human immunodeficiency virus 1, PBMC, read-out: Mean EC50 ± SD, PBMCs, C, 13 of 14 isolates): 17 ± 11 nM
- EC50 ([24]; Human immunodeficiency virus 1, PBMC, read-out: Mean EC50 ± SD, PBMCs, C, 14 isolates): 116 nM
- EC50 ([24]; Human immunodeficiency virus 1, PBMC, read-out: Median EC50, PBMCs, C, 13 of 14 isolates): 14 nM
- EC50 ([24]; Human immunodeficiency virus 1, PBMC, read-out: Median EC50, PBMCs, C, 14 isolates): 14 nM
- EC50 ([24]; Human immunodeficiency virus 1, PBMC, read-out: Range EC50, PBMCs, C, 13 of 14 isolates): 1 to 45 nM
- EC50 ([24]; Human immunodeficiency virus 1, PBMC, read-out: median EC50 values, Fig 7, PBMCs, C (Group M)): 15000 nM
- EC50 ([24]; read-out: Range EC50, PBMCs, C, 14 isolates): 1 to 1400 nM
- EC50 ([25]; Human immunodeficiency virus 1, PBMC, read-out: Mean EC50 ± SD, PBMCs, B (96% of Gag diversity), 22 isolates): 24 ± 24 nM
- EC50 ([25]; Human immunodeficiency virus 1, PBMC, read-out: Mean EC50 ± SD, PBMCs, B (all), 26 isolates): 67 ± 172 nM
- EC50 ([25]; Human immunodeficiency virus 1, PBMC, read-out: Median EC50, PBMCs, B (96% of Gag diversity), 22 isolates): 17 nM
- EC50 ([25]; Human immunodeficiency virus 1, PBMC, read-out: Median EC50, PBMCs, B (all), 26 isolates): 21 nM
- EC50 ([25]; Human immunodeficiency virus 1, PBMC, read-out: Range EC50, PBMCs, B (96% of Gag diversity), 22 isolates): 1 to 110 nM
- EC50 ([25]; Human immunodeficiency virus 1, PBMC, read-out: Range EC50, PBMCs, B (all), 26 isolates): 1 to 858 nM
- EC50 ([25]; Human immunodeficiency virus 1, PBMC, read-out: mean EC50, PBMCs, three less susceptible subtype B variants with Gag V370A/ΔT371): 123 ± 162 nM
- EC50 ([25]; PBMC): 860 nM
